Laboratory results published in ChEMBL document CHEMBL6083273, “Targeting Periplakin of Novel Benzenesulfonamides as Highly Selective Agonists for the Treatment of Vitiligo” (2024).

Columns and labels:
Format in all cases: functional
Danio rerio [1] = organism: Danio rerio; test: Effect on tryptophan metabolism in zebrafish embryo assessed as NA metabolite level at 10 uM by LC/MS analysis
Danio rerio [2] = organism: Danio rerio; test: Effect on tryptophan metabolism in zebrafish embryo assessed as 3-HK metabolite level at 10 uM by LC/MS analysis
Danio rerio [3] = organism: Danio rerio; test: Effect on tryptophan metabolism in zebrafish embryo assessed as IAN metabolite level at 10 uM by LC/MS analysis
Danio rerio [4] = organism: Danio rerio; test: Effect on tryptophan metabolism in zebrafish embryo assessed as 3-HAA metabolite level at 10 uM by LC/MS analysis
Danio rerio [5] = organism: Danio rerio; test: Effect on tryptophan metabolism in zebrafish embryo assessed as ILA metabolite level at 10 uM by LC/MS analysis
Danio rerio [6] = organism: Danio rerio; test: Effect on tryptophan metabolism in zebrafish embryo assessed as IAA metabolite level at 10 uM by LC/MS analysis
Danio rerio [7] = organism: Danio rerio; test: Effect on tryptophan metabolism in zebrafish embryo assessed as Trp metabolite level at 10 uM by LC/MS analysis
Danio rerio [8] = organism: Danio rerio; test: Effect on tryptophan metabolism in zebrafish embryo assessed as skatole metabolite level at 10 uM by LC/MS analysis
Danio rerio [9] = organism: Danio rerio; test: Effect on tryptophan metabolism in zebrafish embryo assessed as ICA metabolite level at 10 uM by LC/MS analysis
Danio rerio [10] = organism: Danio rerio; test: Effect on tryptophan metabolism in zebrafish embryo assessed as IA metabolite level at 10 uM by LC/MS analysis
Danio rerio [11] = organism: Danio rerio; test: Effect on tryptophan metabolism in zebrafish embryo assessed as LE metabolite level at 10 uM by LC/MS analysis
Danio rerio [12] = organism: Danio rerio; test: Effect on tryptophan metabolism in zebrafish embryo assessed as indole metabolite level at 10 uM by LC/MS analysis
Danio rerio [13] = organism: Danio rerio; test: Effect on tryptophan metabolism in zebrafish embryo assessed as AA metabolite level at 10 uM by LC/MS analysis
Danio rerio [14] = organism: Danio rerio; test: Effect on tryptophan metabolism in zebrafish embryo assessed as 5-HTOL metabolite level at 10 uM by LC/MS analysis
Danio rerio [15] = organism: Danio rerio; test: Effect on tryptophan metabolism in zebrafish embryo assessed as IGA metabolite level at 10 uM by LC/MS analysis
Danio rerio [16] = organism: Danio rerio; test: Effect on tryptophan metabolism in zebrafish embryo assessed as Xa metabolite level at 10 uM by LC/MS analysis
Danio rerio [17] = organism: Danio rerio; test: Effect on tryptophan metabolism in zebrafish embryo assessed as 5-HTP metabolite level at 10 uM by LC/MS analysis
Danio rerio [18] = organism: Danio rerio; test: Effect on tryptophan metabolism in zebrafish embryo assessed as NAS metabolite level at 10 uM by LC/MS analysis
Danio rerio [19] = organism: Danio rerio; test: Effect on tryptophan metabolism in zebrafish embryo assessed as IPA metabolite level at 10 uM by LC/MS analysis
Danio rerio [20] = organism: Danio rerio; test: Induction of melanogenesis in zebrafish treated for 24 hrs by absorbance based assay (reference value: 98.2 to 100.3 %)
Danio rerio [21] = organism: Danio rerio; test: Effect on tryptophan metabolism in zebrafish embryo assessed as 5-HIAA metabolite level at 10 uM by LC/MS analysis
Danio rerio [22] = organism: Danio rerio; test: Effect on tryptophan metabolism in zebrafish embryo assessed as indican metabolite level at 10 uM by LC/MS analysis

Compound `Cc1cc(-c2ccc([C@H](C)Nc3nccc(NS(=O)(=O)c4ccc([N+](=O)[O-])cc4)n3)cc2)ccc1F` has an Activity (Danio rerio [1]) of 2107.11 nmol/kg, an Activity (Danio rerio [2]) of 93.63 nmol/kg and an Activity (Danio rerio [3]) of 17.69 nmol/kg. The Activity (Danio rerio [4]) was 3.54 nmol/kg, the Activity (Danio rerio [5]) was 105.98 nmol/kg and the Activity (Danio rerio [6]) was 3.45 nmol/kg. It also gave an Activity (Danio rerio [7]) of 206300.5 nmol/kg, an Activity (Danio rerio [8]) of 582.83 nmol/kg and an Activity (Danio rerio [9]) of 38.27 nmol/kg. For the same compound, the Activity (Danio rerio [10]) was 22 nmol/kg, the Activity (Danio rerio [11]) was 32.11 nmol/kg and the Activity (Danio rerio [12]) was 788.07 nmol/kg. The Activity (Danio rerio [13]) was 14.25 nmol/kg, the Activity (Danio rerio [14]) was 0.03 nmol/kg and the Activity (Danio rerio [15]) was 2.84 nmol/kg. The Activity (Danio rerio [16]) was 430.99 nmol/kg, the Activity (Danio rerio [17]) was 54.62 nmol/kg and the Activity (Danio rerio [18]) was 0.06 nmol/kg. It also gave an Activity (Danio rerio [19]) of 19.38 nmol/kg, an Activity (Danio rerio [20]) of 108.21% and an Activity (Danio rerio [21]) of 55.63 nmol/kg. It also gave an Activity (Danio rerio [22]) of 0.95 nmol/kg.
